In patent US20070037831A1, “Methods of using PDE 5 inhibitors for the treatment of congestive heart failure” (priority 2004, published 2007):

These compounds were tested against PDE V (Homo sapiens, UniProt O76074) (assay: PDE V inhibition (PDE V IC50)).
Assay type: biochemical

| Compound | IC50 [nM] |
| --- | --- |
| COc1ccc(Cn2c(NC3(CO)CCCC3)nc3c2c(=O)n(C)c(=O)n3C)cc1 [Compound 13] | 15 to 100 |
| CCn1c(=O)c2c(nc(N[C@@H]3CCC[C@@H]3O)n2Cc2ccccc2)n(CC)c1=O [Compound 14] | 15 to 100 |
| Cn1c(=O)c2c(nc(NC3CCCC3)n2Cc2ccccc2)n(C)c1=O [Compound 15] | 15 to 100 |
| Cn1c(=O)c2c(nc(NC3CCCCC3)n2Cc2ccccc2)n(C)c1=O [Compound 16] | 15 to 100 |
| COc1ccc(Cn2c(N[C@@H]3CCC[C@@H]3O)nc3c2c(=O)n(C)c(=O)n3CC(C)C)cc1 [Compound 17] | 15 to 100 |
| COc1ccc(Cn2c(NC3(CO)CCCC3)nc3c2c(=O)n(C)c(=O)n3CC(C)C)cc1 [Compound 18] | 15 to 100 |
| COc1ccc(Cn2c(=O)c3c(nc(NC4CCCCC4)n3Cc3ccc(OC)cc3)n(C)c2=O)cc1 [Compound 21] | 5 to 10 |
| COc1ccc(Cn2c(=O)c3c(nc(NC4CCCC4)n3Cc3ccc(OC)cc3)n(C)c2=O)cc1 [Compound 22] | 5 to 10 |
| CCn1c(=O)c2c(nc(NC3CCCCC3)n2Cc2ccc(OC)cc2)n(C)c1=O [Compound 23] | 10 to 15 |
| CCn1c(=O)c2c(nc(NC3CCCC3)n2Cc2ccc(OC)cc2)n(C)c1=O [Compound 24] | 10 to 15 |
| CCn1c(=O)c2c(nc(NC3(CO)CC=CC3)n2Cc2ccc(OC)cc2)n(C)c1=O [Compound 25] | 15 to 100 |
| CCn1c(=O)c2c(nc(NC3CCCCC3)n2Cc2ccccc2)n(CC)c1=O [Compound 29] | 10 to 15 |
| COc1ccc(Cn2c(NC3CCCC3)nc3c2c(=O)n(C)c(=O)n3CC(C)C)cc1 [Compound 30] | 15 to 100 |
| COc1ccc(Cn2c(NC3CCCCC3)nc3c2c(=O)n(C)c(=O)n3CC(C)C)cc1 [Compound 31] | 15 to 100 |
| COc1ccc(Cn2c(NC3CCCC3)nc3c2c(=O)n(C)c(=O)n3C)cc1 [Compound 32] | 15 to 100 |
| COc1ccc(Cn2c(NC3CCCCC3)nc3c2c(=O)n(C)c(=O)n3C)cc1 [Compound 33] | 10 to 15 |
| COc1ccc(Cn2c(NC3(CO)CC=CC3)nc3c2c(=O)n(C)c(=O)n3C)cc1 [Compound 34] | 10 to 15 |
| Cn1c(=O)c2c(nc(NC3CCCC3)n2Cc2ccc(O)cc2)n(C)c1=O [Compound 36] | 5 to 10 |
| CCn1c(=O)c2c(nc(NC3CCCC3)n2Cc2ccc(OC)cc2)n(CC(C)C)c1=O [Compound 38] | 15 to 100 |
| CCn1c(=O)c2c(nc(NC3CCCCC3)n2Cc2ccc(OC)cc2)n(CC(C)C)c1=O [Compound 39] | 10 to 15 |
| CCn1c(=O)c2c(nc(NC3CCCC3O)n2Cc2ccc(OC)cc2)n(CC(C)C)c1=O (stereo not drawn) [Compound 40] | 10 to 15 |

| Compound | IC50 [nM] |
| --- | --- |
| CCn1c(=O)c2c(nc(NC3(CO)CCCC3)n2Cc2ccc(OC)cc2)n(CC(C)C)c1=O [Compound 41] | 15 to 100 |
| COc1ccc(Cn2c(NC3CCC3)nc3c2c(=O)n(C)c(=O)n3C)cc1 [Compound 42] | 15 to 100 |
| COc1ccc(Cn2c(NC3CCCCCC3)nc3c2c(=O)n(C)c(=O)n3C)cc1 [Compound 43] | 15 to 100 |
| CCn1c(=O)c2c(nc(NC3CCCC3)n2Cc2ccccc2)n(CC(C)C)c1=O [Compound 55] | 15 to 100 |
| CCn1c(=O)c2c(nc(NC3CCCCC3)n2Cc2ccccc2)n(CC(C)C)c1=O [Compound 56] | 15 to 100 |
| CCn1c(=O)c2c(nc(NC3(CO)CC=CC3)n2Cc2ccccc2)n(CC(C)C)c1=O [Compound 57] | 15 to 100 |
| CCn1c(=O)c2c(nc(NC3CCCC3O)n2Cc2ccccc2)n(CC(C)C)c1=O (stereo not drawn) [Compound 58] | 15 to 100 |
| CCn1c(=O)c2c(nc(NC3CCCC3)n2Cc2ccc(O)cc2)n(CC(C)C)c1=O [Compound 59] | 5 to 10 |
| CCn1c(=O)c2c(nc(NC3CCCC3)n2Cc2ccc(OC)cc2)n(CC)c1=O [Compound 60] | ≤ 5 |
| CCn1c(=O)c2c(nc(NC3CCCCC3)n2Cc2ccc(OC)cc2)n(CC)c1=O [Compound 61] | ≤ 5 |
| CCn1c(=O)c2c(nc(NC3(CO)CC=CC3)n2Cc2ccc(OC)cc2)n(CC)c1=O [Compound 62] | ≤ 5 |
| CCn1c(=O)c2c(nc(NC3CCCC3)n2Cc2ccc(O)cc2)n(CC)c1=O [Compound 63] | ≤ 5 |
| CCn1c(=O)c2c(nc(NC3CCCCC3)n2Cc2ccc(O)cc2)n(CC)c1=O [Compound 64] | ≤ 5 |
| CCn1c(=O)c2c(nc(NC3CCCCC3)n2Cc2ccc(O)cc2)n(CC(C)C)c1=O [Compound 65] | ≤ 5 |
| Cn1c(=O)c2c(nc(NC3CCC3)n2Cc2ccc(O)cc2)n(C)c1=O [Compound 66] | 5 to 10 |
| COc1ccc(Cn2c(=O)c3c(nc(NC4(CO)CC=CC4)n3Cc3ccc(OC)cc3)n(C)c2=O)cc1 [Compound 67] | ≤ 5 |
| Cn1c(=O)[nH]c(=O)c2c1nc(NC1CCCC1)n2Cc1ccc(O)cc1 [Compound 68] | 5 to 10 |
| Cn1c(=O)c2c(nc(NC3CCCCCC3)n2Cc2ccc(O)cc2)n(C)c1=O [Compound 69] | 15 to 100 |
| COc1ccc(Cn2c(NC3CCCCC3)nc3c2c(=O)[nH]c(=O)n3C)cc1 [Compound 70] | 15 to 100 |
| Cn1c(=O)[nH]c(=O)c2c1nc(NC1CCCCC1)n2Cc1ccc(O)cc1 [Compound 71] | 15 to 100 |
| Cn1c(=O)c2c(nc(NC3CC4CCC3C4)n2Cc2ccc(O)cc2)n(C)c1=O (stereo not drawn) [Compound 77] | 15 to 100 |

The remaining lines, values ahead:

| IC50 [nM] | Compound |
| --- | --- |
| 5 to 10 | CCn1c(=O)c2c(nc(NC3CCCCC3)n2Cc2ccc(O)cc2)n(C)c1=O [Compound 78] |
| 15 to 100 | COc1ccc(Cn2c(N[C@@H]3CCc4ccccc43)nc3c2c(=O)n(C)c(=O)n3C)cc1 [Compound 85] |
| 5 to 10 | CCn1c(=O)c2c(nc(NC3CCCCC3)n2Cc2ccc(OC(C)=O)cc2)n(CC)c1=O [Compound 89] |
| 15 to 100 | CCn1c(=O)[nH]c2nc(NC3CCCCC3)n(Cc3ccc(OC)cc3)c2c1=O [Compound 92] |
| 10 to 15 | CCn1c(=O)[nH]c2nc(NC3CCCC3)n(Cc3ccc(OC)cc3)c2c1=O [Compound 93] |
| 10 to 15 | CCn1c(=O)[nH]c2nc(NC3CCCCC3)n(Cc3ccc(O)cc3)c2c1=O [Compound 94] |
| 5 to 10 | CCn1c(=O)[nH]c2nc(NC3CCCC3)n(Cc3ccc(O)cc3)c2c1=O [Compound 95] |
| 15 to 100 | CCn1c(=O)c2c(nc(NC3CCCCC3)n2Cc2ccc(C(F)(F)F)cc2)n(CC(C)C)c1=O [Compound 96] |
| 15 to 100 | CCn1c(=O)c2c(nc(NC3CCCCC3)n2Cc2ccc(C(=O)O)cc2)n(CC)c1=O [Compound 98] |
| 5 to 10 | CCn1c(=O)c2c(nc(NC3CCCCC3)n2Cc2ccc(C(=O)OC)cc2)n(CC)c1=O [Compound 99] |
| 15 to 100 | CCn1c(=O)c2c(nc(NC3CCCCC3)n2Cc2ccccc2)n(CCO)c1=O [Compound 101] |
| 10 to 15 | CCn1c(=O)c2c(nc(NC3CCCCC3)n2Cc2cc3c(cc2Cl)OCO3)n(CCO)c1=O [Compound 108] |
| 5 to 10 | CCn1c(=O)c2c(nc(NC3CCCCC3)n2Cc2ccc(OC)c(C)c2)n(CCO)c1=O [Compound 110] |
| 10 to 15 | CCn1c(=O)c2c(nc(N[C@@H]3CCC[C@H]3O)n2Cc2ccc(OC)c(C)c2)n(CCO)c1=O [Compound 111] |
| 10 to 15 | CCn1c(=O)c2c(nc(NC3CCCCC3)n2Cc2ccc(O)c(C)c2)n(CCO)c1=O [Compound 112] |
| 15 to 100 | CCn1c(=O)c2c(nc(N[C@@H]3CCC[C@H]3O)n2Cc2ccc(O)c(C)c2)n(CCO)c1=O [Compound 113] |
| ≤ 5 | CCn1c(=O)c2c(nc(N[C@@H]3CCC[C@H]3O)n2Cc2ccc(OC)c(Br)c2)n(CCO)c1=O [Compound 114] |
| 5 to 10 | CCn1c(=O)c2c(nc(N[C@@H]3CCC[C@H]3O)n2Cc2ccc(O)c(Cl)c2)n(CCO)c1=O [Compound 115] |
| 15 to 100 | CCn1c(=O)c2c(nc(NC3CCCCC3)n2Cc2cccc(Cl)c2)n(CC)c1=O [Compound 120] |
| 15 to 100 | CCCn1c(=O)n(CC)c(=O)c2c1nc(NC1CCCCC1)n2Cc1ccc(S(C)(=O)=O)cc1 [Compound 121] |

| IC50 [nM] | Compound |
| --- | --- |
| 10 to 15 | CCn1c(=O)c2c(nc(N[C@H]3CC[C@H](O)CC3)n2Cc2ccc(OC)c(Br)c2)n(CC)c1=O [Compound 125] |
| 15 to 100 | CCn1c(=O)c2c(nc(N[C@@H]3CCC[C@H]3O)n2Cc2ccc(S(N)(=O)=O)cc2)n(CC)c1=O [Compound 126] |
| 15 to 100 | CCn1c(=O)c2c(nc(N[C@@H]3CCC[C@H]3O)n2Cc2cc(Br)c3c(c2)CCO3)n(CCO)c1=O [Compound 128] |
| 15 to 100 | Cc1cccc(Cn2c(NC3CCCCC3)nc3c2c(=O)n(C)c(=O)n3C)c1 [Compound 131] |
| 5 to 10 | Cc1ccc(Cn2c(NC3CCCCC3)nc3c2c(=O)n(C)c(=O)n3C)cc1 [Compound 132] |
| 10 to 15 | Cn1c(=O)c2c(nc(NC3CCCCC3)n2Cc2ccccc2F)n(C)c1=O [Compound 136] |
| 15 to 100 | Cn1c(=O)c2c(nc(NC3CCCCC3)n2Cc2cccc(F)c2)n(C)c1=O [Compound 137] |
| 15 to 100 | Cn1c(=O)c2c(nc(NC3CCCCC3)n2Cc2ccc(F)cc2)n(C)c1=O [Compound 138] |
| 15 to 100 | COc1cccc(Cn2c(NC3CCCCC3)nc3c2c(=O)n(C)c(=O)n3C)c1 [Compound 141] |
| ≤ 5 | Cn1c(=O)c2c(nc(NC3CCCCC3)n2Cc2ccc3c(c2)OCO3)n(C)c1=O [Compound 142] |
| 10 to 15 | COc1ccc(Cn2c(NC3CCCCC3)nc3c2c(=O)n(C)c(=O)n3C)cc1C [Compound 144] |
| 5 to 10 | COc1ccc(Cn2c(NC3CCCCC3)nc3c2c(=O)n(C)c(=O)n3C)cc1Cl [Compound 159] |
| 10 to 15 | Cn1c(=O)c2c(nc(NC3CCCCC3)n2Cc2cc3c(cc2Cl)OCO3)n(C)c1=O [Compound 160] |
| 10 to 15 | Cn1c(=O)c2c(nc(NC3CCCCC3)n2Cc2ccc(O)c(Cl)c2)n(C)c1=O [Compound 161] |
| 15 to 100 | CCn1c(=O)c2c(nc(NC3CCCCC3)n2Cc2ccccc2F)n(CC)c1=O [Compound 165] |
| 15 to 100 | CCn1c(=O)c2c(nc(NC3CCCCC3)n2Cc2ccc(OC)c(C)c2)n(CC)c1=O [Compound 166] |
| 5 to 10 | CCCn1c(=O)n(CC)c(=O)c2c1nc(NC1CCCCC1)n2Cc1ccc(OC)c(Cl)c1 [Compound 171] |
| 5 to 10 | CCCn1c(=O)n(CC)c(=O)c2c1nc(NC1CCCCC1)n2Cc1ccc(O)c(Cl)c1 [Compound 172] |
| 15 to 100 | CCCn1c(=O)n(CC)c(=O)c2c1nc(NC1CCCCC1)n2Cc1ccccc1F [Compound 173] |
